Here are results for six molecules from ChEMBL document CHEMBL5465560, “Selectivity Literature for EUbOPEN Chemogenomic Library” (2024).

Assay [1] has as its system Epidermal growth factor receptor (Homo sapiens), P00533 [UNDEFINED MUTATION]. Nature of the assay: Selectivity interaction (ProQinase) EUB0000171b EGFR. The conditions noted are these: at 1 µM.
Assay [2] has as its target Histone-lysine N-methyltransferase, H3 lysine-36 specific (Homo sapiens) (UniProt Q96L73). Nature of the assay: Selectivity interaction (Methyltransferase screen (Scintillation proximity assays)) EUB0000255b NSD1. For orientation: In a scintillation proximity assay essentially only radioactivity close to the scintillant gives light.
The target in assay [3] is T1, Homeodomain-interacting protein kinase 4 (Homo sapiens) (UniProt Q8NE63).
T1 sequence (whole entry): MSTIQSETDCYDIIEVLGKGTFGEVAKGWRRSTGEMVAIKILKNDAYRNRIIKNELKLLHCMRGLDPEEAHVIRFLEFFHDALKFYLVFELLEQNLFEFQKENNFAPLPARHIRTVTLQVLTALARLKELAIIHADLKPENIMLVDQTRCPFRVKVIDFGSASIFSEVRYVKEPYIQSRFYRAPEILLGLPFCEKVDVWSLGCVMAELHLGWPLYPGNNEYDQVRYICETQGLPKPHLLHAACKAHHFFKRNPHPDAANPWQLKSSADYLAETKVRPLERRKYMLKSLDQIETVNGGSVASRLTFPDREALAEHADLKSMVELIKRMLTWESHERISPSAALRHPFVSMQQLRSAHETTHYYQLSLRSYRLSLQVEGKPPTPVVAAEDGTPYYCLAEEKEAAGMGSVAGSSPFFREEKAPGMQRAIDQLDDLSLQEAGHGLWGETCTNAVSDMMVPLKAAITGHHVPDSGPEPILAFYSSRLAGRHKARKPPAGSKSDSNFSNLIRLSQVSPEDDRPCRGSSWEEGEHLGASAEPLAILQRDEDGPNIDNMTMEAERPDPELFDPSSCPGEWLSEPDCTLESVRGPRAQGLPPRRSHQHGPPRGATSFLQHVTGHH
Description: Selectivity interaction (KinomeScan (DiscoverX)) EUB0001049a HIPK4. As to conditions: at 1 µM.

Assay [4] addresses Serine/threonine-protein kinase 33 (Homo sapiens) (UniProt Q9BYT3). Description: Selectivity interaction (KinomeScan (DiscoverX)) EUB0000655a STK33. The conditions noted are these: at 10 µM.
Assay [5] deals with Histone-lysine N-methyltransferase KMT5B (Homo sapiens) (UniProt Q4FZB7). The conditions noted are these: at 1 µM.
Sequence of Histone-lysine N-methyltransferase KMT5B (Homo sapiens) (Q4FZB7 whole entry, looked up): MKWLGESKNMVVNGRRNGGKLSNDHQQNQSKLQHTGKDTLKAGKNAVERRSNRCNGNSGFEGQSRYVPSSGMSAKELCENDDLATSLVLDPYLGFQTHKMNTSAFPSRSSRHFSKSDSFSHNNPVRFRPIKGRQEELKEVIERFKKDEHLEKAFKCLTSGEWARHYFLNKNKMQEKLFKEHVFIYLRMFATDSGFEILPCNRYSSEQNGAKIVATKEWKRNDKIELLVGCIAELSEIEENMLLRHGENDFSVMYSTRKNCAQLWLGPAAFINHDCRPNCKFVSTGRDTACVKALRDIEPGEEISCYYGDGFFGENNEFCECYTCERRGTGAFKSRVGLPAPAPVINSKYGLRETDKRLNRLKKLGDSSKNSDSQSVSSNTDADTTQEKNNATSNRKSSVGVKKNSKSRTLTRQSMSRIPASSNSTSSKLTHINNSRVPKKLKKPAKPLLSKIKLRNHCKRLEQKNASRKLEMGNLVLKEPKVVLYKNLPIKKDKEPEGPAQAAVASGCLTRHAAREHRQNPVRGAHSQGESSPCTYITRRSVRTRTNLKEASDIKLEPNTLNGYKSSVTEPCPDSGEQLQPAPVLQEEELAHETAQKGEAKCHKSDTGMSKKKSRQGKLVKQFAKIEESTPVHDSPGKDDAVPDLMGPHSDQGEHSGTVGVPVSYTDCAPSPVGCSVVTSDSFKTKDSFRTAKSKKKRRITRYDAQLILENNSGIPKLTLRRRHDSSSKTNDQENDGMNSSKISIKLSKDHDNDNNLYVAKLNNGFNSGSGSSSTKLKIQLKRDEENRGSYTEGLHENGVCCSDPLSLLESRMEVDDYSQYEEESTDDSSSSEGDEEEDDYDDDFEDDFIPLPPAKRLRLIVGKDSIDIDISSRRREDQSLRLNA
The target of assay [6] is T2, Serine/threonine-protein kinase TAO2 (Homo sapiens) (UniProt Q9UL54).
T2 sequence (whole entry): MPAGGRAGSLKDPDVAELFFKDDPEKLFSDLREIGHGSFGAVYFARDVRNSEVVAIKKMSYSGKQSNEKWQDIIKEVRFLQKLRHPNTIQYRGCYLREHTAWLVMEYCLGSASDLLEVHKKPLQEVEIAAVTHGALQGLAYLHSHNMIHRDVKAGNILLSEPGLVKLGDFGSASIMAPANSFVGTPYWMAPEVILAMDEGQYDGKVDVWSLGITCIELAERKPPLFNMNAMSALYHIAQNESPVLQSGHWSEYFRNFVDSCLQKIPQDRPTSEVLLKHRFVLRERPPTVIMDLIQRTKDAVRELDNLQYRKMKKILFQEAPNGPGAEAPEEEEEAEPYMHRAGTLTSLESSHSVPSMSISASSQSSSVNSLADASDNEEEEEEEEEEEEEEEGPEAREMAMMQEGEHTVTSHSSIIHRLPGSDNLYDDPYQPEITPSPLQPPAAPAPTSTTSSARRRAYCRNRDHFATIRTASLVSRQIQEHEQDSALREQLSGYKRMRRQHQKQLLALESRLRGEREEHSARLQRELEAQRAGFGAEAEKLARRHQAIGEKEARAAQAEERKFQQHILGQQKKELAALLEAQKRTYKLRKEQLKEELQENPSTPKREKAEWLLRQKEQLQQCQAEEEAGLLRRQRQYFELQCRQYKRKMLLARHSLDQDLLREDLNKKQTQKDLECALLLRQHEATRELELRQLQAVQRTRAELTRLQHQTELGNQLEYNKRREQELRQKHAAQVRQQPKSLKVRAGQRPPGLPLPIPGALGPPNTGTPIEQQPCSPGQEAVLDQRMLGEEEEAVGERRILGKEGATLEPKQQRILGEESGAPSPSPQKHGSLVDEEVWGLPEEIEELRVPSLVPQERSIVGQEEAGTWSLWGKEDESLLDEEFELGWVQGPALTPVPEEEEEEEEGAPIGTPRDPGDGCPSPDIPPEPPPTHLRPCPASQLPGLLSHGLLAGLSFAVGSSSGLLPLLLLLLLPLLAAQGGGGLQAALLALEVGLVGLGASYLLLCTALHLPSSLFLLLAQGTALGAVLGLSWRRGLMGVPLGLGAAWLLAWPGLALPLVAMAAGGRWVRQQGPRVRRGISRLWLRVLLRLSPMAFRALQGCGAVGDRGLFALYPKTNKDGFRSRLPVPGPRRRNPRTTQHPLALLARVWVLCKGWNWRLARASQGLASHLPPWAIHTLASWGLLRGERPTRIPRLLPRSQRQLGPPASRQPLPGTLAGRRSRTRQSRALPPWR
Description: Selectivity interaction (KinomeScan (DiscoverX)) EUB0000618a TAOK2. As to conditions: at 10 µM.

Sequence of Histone-lysine N-methyltransferase, H3 lysine-36 specific (Homo sapiens) (Q96L73 whole entry): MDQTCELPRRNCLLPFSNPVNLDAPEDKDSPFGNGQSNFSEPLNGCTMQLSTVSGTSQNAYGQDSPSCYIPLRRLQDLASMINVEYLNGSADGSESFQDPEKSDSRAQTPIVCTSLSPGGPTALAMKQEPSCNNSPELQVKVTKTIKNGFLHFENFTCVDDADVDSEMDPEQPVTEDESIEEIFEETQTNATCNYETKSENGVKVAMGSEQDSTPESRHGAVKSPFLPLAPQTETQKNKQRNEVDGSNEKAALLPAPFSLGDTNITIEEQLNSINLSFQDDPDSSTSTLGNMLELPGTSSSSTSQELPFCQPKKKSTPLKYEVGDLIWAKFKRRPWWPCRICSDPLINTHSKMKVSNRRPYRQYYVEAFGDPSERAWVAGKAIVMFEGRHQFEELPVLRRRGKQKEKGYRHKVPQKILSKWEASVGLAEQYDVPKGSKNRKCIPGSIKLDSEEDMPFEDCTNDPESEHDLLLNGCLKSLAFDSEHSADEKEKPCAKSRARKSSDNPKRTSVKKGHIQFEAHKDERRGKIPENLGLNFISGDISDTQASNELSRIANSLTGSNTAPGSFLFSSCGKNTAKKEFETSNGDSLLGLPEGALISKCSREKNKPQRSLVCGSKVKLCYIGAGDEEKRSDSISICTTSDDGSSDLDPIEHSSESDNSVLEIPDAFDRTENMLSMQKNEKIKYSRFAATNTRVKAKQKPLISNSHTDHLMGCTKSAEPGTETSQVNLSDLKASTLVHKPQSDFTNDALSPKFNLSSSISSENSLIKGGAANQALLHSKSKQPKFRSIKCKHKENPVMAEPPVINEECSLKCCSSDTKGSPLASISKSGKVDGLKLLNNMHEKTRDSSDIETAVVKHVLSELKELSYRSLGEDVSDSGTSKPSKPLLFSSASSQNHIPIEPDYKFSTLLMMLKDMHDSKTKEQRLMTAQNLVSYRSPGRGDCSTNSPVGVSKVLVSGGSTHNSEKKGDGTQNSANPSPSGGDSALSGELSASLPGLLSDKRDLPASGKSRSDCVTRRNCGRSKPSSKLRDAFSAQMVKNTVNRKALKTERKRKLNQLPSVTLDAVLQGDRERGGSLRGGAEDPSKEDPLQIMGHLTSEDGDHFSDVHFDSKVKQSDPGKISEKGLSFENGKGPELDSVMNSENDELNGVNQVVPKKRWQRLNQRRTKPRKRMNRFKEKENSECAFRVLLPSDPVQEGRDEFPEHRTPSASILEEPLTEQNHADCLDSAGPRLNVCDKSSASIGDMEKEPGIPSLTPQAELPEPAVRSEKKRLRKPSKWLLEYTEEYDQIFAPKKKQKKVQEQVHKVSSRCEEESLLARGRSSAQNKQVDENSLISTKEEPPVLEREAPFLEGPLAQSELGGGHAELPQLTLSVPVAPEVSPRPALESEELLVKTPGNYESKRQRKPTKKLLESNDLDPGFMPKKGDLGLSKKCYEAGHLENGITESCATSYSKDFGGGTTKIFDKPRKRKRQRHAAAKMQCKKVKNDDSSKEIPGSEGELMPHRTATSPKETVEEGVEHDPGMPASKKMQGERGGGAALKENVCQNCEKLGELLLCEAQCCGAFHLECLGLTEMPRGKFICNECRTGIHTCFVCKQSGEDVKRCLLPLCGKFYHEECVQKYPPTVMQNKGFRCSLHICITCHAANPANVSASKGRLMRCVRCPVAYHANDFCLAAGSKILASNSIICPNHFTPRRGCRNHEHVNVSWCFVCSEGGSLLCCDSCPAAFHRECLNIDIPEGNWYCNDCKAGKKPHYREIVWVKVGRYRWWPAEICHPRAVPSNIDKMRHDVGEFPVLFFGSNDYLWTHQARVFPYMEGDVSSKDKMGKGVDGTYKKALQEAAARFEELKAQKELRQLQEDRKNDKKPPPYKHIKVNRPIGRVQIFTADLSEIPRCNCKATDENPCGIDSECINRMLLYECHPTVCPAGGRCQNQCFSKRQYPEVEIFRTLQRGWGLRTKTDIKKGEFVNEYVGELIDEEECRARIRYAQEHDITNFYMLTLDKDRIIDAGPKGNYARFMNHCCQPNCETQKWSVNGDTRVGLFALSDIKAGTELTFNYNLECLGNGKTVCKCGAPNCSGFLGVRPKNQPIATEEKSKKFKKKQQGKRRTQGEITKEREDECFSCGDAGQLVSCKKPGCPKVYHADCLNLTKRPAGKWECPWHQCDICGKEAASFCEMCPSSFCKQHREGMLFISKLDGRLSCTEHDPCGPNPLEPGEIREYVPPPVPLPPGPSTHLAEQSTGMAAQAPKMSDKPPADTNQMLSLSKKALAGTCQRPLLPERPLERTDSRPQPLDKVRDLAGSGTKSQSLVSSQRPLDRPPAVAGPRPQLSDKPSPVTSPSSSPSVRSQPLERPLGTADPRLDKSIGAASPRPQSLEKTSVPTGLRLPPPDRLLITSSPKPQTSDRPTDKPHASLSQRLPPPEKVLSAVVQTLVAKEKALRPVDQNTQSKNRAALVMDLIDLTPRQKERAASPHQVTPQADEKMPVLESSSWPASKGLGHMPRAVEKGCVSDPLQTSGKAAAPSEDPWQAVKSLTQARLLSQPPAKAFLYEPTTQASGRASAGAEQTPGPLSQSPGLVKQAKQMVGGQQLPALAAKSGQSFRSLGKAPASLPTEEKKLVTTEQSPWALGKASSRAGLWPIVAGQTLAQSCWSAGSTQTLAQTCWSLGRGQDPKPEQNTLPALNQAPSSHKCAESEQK
Sequence of Epidermal growth factor receptor (Homo sapiens), P00533 [UNDEFINED MUTATION] (P00533 whole entry, looked up, change not shown): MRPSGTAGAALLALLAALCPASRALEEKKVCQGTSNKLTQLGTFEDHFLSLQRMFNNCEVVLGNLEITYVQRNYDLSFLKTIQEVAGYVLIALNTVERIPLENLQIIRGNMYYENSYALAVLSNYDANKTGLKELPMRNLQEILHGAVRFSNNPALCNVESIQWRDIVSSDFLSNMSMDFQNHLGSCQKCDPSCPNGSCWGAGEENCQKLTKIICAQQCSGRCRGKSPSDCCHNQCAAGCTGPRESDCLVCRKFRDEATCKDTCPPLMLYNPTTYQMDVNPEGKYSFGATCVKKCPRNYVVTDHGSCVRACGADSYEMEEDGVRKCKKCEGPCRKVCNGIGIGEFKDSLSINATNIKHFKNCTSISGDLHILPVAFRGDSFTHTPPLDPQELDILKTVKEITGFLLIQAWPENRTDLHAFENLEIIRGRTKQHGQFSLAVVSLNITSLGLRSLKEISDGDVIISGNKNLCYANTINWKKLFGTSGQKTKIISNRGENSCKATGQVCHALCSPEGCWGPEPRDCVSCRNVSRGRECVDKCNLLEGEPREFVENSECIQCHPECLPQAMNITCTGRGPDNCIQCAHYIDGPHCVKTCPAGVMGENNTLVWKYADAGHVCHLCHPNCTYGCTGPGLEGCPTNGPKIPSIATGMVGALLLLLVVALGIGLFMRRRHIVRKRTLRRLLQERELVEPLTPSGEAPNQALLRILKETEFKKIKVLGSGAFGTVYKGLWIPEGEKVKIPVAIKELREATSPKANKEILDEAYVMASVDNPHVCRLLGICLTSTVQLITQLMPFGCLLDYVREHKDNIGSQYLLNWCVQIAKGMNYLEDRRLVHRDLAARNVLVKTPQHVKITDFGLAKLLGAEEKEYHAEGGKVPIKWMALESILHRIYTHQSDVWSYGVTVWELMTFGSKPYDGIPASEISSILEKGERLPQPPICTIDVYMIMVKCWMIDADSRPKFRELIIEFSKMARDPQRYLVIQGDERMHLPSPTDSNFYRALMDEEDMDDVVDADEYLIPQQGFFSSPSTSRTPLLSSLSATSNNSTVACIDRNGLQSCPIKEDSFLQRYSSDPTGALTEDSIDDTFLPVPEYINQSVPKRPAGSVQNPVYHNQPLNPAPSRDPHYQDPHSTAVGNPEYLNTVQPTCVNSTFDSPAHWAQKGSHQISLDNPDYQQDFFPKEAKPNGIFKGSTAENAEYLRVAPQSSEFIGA

`C=CC(=O)Nc1cccc(C(=O)Nc2ccc(Nc3cc(-c4[nH]c(SC)nc4C)ccn3)cc2)c1`: the % of control in assay [1] was 101%.

As for `COCCN1CCC(c2cc(CN(C)C(=O)c3cccc(Oc4ccccc4)c3)ccn2)CC1`, the % activity in assay [2] (at 1 µM) was more than 95%; in assay [2] (at 10 µM) it was more than 90%.

Consider `COc1cc(Nc2nc(C)cc(-c3cnn4nc(OC)ccc34)n2)cc(C(F)(F)F)c1`, for which the % of control in assay [3] is 92%.

Regarding `CN(C)CCOc1ccc(-c2nc(-c3ccncc3)c(-c3ccc4c(c3)CC/C4=N\O)[nH]2)cc1`, the % of control in assay [4] stood at 88%.

With `CNCCN1CCC(c2cc(CN(C)C(=O)c3cccc(Oc4ccccc4)c3)ccn2)CC1`, the % activity in assay [5] is more than 90%.

`O[C@H]1CC[C@H](Nc2ncc3nc(Nc4c(F)cc(F)cc4F)n([C@H]4CCOC4)c3n2)CC1`: the % of control in assay [6] was 93%.
